Assay [1] concerns the target T1, PDGFR-β (Homo sapiens, UniProt P09619).
T1 construct: host or cells: NIH 3T3
In words: Biochemical PDGFR assay (ELISA, PDGFR-β expressing NIH 3T3 cell lysate). Particulars: read-out: bio PDGF IC50. The gist of the method: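 PDGFR-β from NIH 3T3 cell lysate captured on anti-PDGFR (28D4C10)-coated plates; compound preincubated 30 min, then 20 μM ATP kinase reaction 30 min at room temperature, stopped with EDTA. Phosphotyrosine detected by anti-phosphotyrosine antibody, peroxidase conjugate and ABTS/H2O2, read at 410 nm.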

Assay [2] deals with Myc-GyrB-FGFR fusion protein (Homo sapiens, UniProt P11362). In words: Biochemical FGFR assay (ELISA). As to conditions: read-out: bio fgfR1 IC50.
Myc-GyrB-FGFR fusion protein, sequence (P11362 478-767 limits assumed): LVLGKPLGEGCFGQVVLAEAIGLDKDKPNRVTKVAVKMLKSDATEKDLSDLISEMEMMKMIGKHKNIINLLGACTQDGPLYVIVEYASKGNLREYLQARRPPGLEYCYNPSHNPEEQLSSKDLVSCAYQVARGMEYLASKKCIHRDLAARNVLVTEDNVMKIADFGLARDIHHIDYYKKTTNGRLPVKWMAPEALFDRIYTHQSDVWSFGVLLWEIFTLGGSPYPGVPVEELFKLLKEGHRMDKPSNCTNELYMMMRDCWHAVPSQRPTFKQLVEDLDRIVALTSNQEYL

The structures appear in SMILES notation.

T1 sequence (P09619 33-1106): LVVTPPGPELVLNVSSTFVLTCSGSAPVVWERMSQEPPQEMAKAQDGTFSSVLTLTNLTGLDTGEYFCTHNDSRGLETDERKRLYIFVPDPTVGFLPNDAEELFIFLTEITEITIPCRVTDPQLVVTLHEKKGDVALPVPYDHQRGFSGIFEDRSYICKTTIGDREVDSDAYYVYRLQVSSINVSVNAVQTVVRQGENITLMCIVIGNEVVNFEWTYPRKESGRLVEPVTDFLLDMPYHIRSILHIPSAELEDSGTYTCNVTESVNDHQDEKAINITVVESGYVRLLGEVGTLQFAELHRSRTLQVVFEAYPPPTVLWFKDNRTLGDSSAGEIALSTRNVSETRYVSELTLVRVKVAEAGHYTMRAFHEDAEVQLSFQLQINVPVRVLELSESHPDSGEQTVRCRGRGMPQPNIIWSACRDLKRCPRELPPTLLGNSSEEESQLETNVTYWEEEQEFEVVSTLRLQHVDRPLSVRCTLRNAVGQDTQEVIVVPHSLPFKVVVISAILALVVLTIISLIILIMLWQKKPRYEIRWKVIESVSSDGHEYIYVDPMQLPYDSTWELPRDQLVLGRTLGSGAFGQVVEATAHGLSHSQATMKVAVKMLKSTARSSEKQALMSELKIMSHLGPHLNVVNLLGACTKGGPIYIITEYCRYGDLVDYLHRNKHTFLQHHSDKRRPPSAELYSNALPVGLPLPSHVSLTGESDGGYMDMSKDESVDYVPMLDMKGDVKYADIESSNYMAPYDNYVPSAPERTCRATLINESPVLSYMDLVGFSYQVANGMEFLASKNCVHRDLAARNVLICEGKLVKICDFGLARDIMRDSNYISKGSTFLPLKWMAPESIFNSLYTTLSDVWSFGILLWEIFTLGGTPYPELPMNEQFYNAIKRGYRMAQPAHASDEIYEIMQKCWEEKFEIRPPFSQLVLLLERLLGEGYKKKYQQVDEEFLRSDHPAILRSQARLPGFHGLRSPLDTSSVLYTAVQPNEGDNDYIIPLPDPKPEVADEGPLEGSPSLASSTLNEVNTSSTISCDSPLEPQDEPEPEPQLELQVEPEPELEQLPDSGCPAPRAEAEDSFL

Broadly, the IC50 is the concentration at which inhibition is half-maximal. As for `O=C(O)CCc1c(/C=C2\C(=O)Nc3cc(-c4ccccc4)ccc32)[nH]c2c1CCCC2` [Example 206, 3-[2-(2-oxo-6-phenyl-1,2-dihydroindol-3-ylidenemethyl)-4,5,6,7-tetrahydro-1H-indol-3-yl]-propionic acid], the IC50 is 40 nM in assay [1] and 1.18 µM in assay [2].
The like results for `Cc1cc(CCC(=O)O)c(/C=C2\C(=O)Nc3ccc(Br)cc32)[nH]1` [Compound 116, 3-[2-(5-Bromo-2-oxo-1,2-dihydroindol-3-ylidenemethyl)-5-methyl-1H-pyrrol-3-yl]-propionic acid] were, in that order, 20 nM and 0.29 µM.
Consider `Cc1[nH]c2ccccc2c1/C=C1\C(=O)Nc2ccc(C(=O)O)cc21` [Example 182, 3-(2-Methyl-1H-indol-3-ylmethylene)-2-oxo-2,3-dihydro-1H-indole-5-carboxylic acid], for which the results for the half-inhibitory concentration (IC50) in assay [1] and in assay [2] were 5400 nM and 5.94 µM, respectively.
For the compound `O=C(O)CCc1ccccc1/C=C1/C(=O)Nc2ccccc21` [Example 214, 3-[2-(2-Oxo-1,2-dihydroindol-3-ylidenemethyl)-phenyl]-propionic acid], the IC50 in assay [1] was greater than 100000 nM; in assay [2] it was 30.2 µM.
For `Nc1ccc2c(c1)/C(=C/c1ccc3[nH]ccc3c1)C(=O)N2` [Example 179, 5-Amino-3-(1H-indol-5-ylmethylene)-1,3-dihydro-indol-2-one], in that order: greater than 100000 nM and 4.52 µM.
The like results for `CCOC(=O)c1c(C)[nH]c(/C=C2\C(=O)Nc3ccc(Br)cc32)c1CCC(=O)O` [Compound 114, 5-(5-Bromo-2-oxo-1,2-dihydroindol-3-ylidenemethyl)-4-(2-carboxyethyl)-2-methyl-1H-pyrrole-3-carboxylic acid ethyl ester] were, in that order, 50 nM and 4.26 µM.
`O=C(O)CCc1c(/C=C2\C(=O)Nc3ccc(Cl)cc32)[nH]c2c1CCCC2` [Example 191, 3-[2-(5-Chloro-2-oxo-1,2-dihydroindol-3-ylidenemethyl)-4,5,6,7-tetrahydro-1H-indol-3-yl]-propionic acid]: the IC50 in assay [1] came out at 50 nM; in assay [2], 0.04 µM.
For `O=C(O)CCc1c(/C=C2\C(=O)Nc3ccccc32)[nH]c2c1CCCC2` [Example 190, 3-[2-(2-Oxo-1,2-dihydro-indol-3-ylidenemethyl)-4,5,6,7-tetrahydro-1H-indol-3-yl]-propionic acid], the IC50 turned out to be 2080 nM in assay [1] and 5.85 µM in assay [2].
In the case of `Cc1[nH]c2ccccc2c1/C=C1\C(=O)Nc2ccc(N)cc21` [Example 187, 5-Amino-3-(2-methyl-1H-indol-3-ylmethylene)-1,3-dihydroindol-2-one], the IC50 in assay [1] is greater than 100000 nM; in assay [2], 13.8 µM.

The record behind these values is patent US6855730B2, “3-methylidenyl-2-indolinone modulators of protein kinase” (Sugen, Inc., priority 1998, dated 2005).
